Results taken from patent US5948635A, “Totally Synthetic Affinity Reagents” (University of North Carolina at Chapel Hill, priority 1995, dated 1999).
No end group written: not given here.

What was measured:
calmodulin = calmodulin (Homo sapiens, UniProt P0DP23); assay: Competition with SEQ ID NO 176 peptide binding to calmodulin; conditions: FIG. 20, FIG. 23
From the text: To examine where the SEQ ID NO 176 peptide bound the CaM molecule, we attempted to block binding with other peptides that have been previously shown to bind to the central, linker region of CaM (See Persechini and Kretsinger, 1988, J. Cardiovasc. Pharmacol 12:S1-12; Ikura et al., 1992, Cell Calcium 13:391-400; Chapman et al., 1992, Biochemistry 31:12819-25; Meador et al., 1992, Science 257: 1251-1255). It is this region of CaM that binds various proteins to regulate their activity in a Ca^2+ -dependent manner.
If the site responsible for binding of the CaM specific TSARs to CaM were only a five or six residue peptide, then one would have expected to isolate about 10-20 CaM binding TSARs from the TSAR-12 library. However, since only one particular CaM binding TSAR was repeatedly isolated, it appears that the site of interaction between the CaM specific TSAR and CaM is complex, i.e., the site requires more than simply 5 or 6 residues. To illustrate regions of the SEQ ID NO 176 that are involved in binding to CaM, the ability of 4 modified peptides to compete with SEQ ID NO 176 binding for calmodulin were examined. The modified peptides were (a) the N-terminal 13 residues […] SEQ ID NO 185; (b) the C-terminal 13 residues […] SEQ ID NO 186; (c) the SEQ ID NO 176 peptide where, at position 4, W was changed to A--[…] SEQ ID NO. 184; and (d) a peptide having the reverse sequence […] SEQ ID NO. […]

[1] = system: 7E11-C5 monoclonal antibody; assay: ELISA of antibody binding to immobilized peptide; set-up: species or system mouse; conditions: peptide adsorbed on polyvinylchloride plates, 0.5-500 μg/ml; FIG. 14, 15
Method: (§1) Peptides, diluted in 10% PBS (Dulbecco's, pH 7.2, Hazelton), were immobilized by adsorption on polyvinylchloride plates. SEQ ID NO 31 (amide form) was diluted in 10% PBS at 0.5, 5, 50 or 500 μg/ml. Control peptide 2 in 10% PBS at the same range of concentrations served as the control. A 50 μl volume of the test or control peptide solution was added to each well and incubated overnight at 4° C. The peptide solution was removed and 10% BSA-PBS was added as blocking solution. […] Bound 7E11-C5 monoclonal antibody was detected with anti-mouse IgG1 -HRP as described above herein.

B139 monoclonal antibody [2] = assay: ELISA of control antibody binding to immobilized peptide; set-up: species or system murine; conditions: peptide coated at 5 μg/ml; FIG. 15
Method: as §1

[3] = system: 7E11-C5 monoclonal antibody; assay: Competitive binding ELISA: inhibition of 7E11-C5 binding to LNCaP cell lysate antigen; set-up: species or system mouse; conditions: peptides, amide form; FIG. 13
Method: Each well of a polyvinylchloride 96-well ELISA plate (Cooke, Alexandria, Va.) was coated with an LNCAP human prostate carcinoma cell (ATCC # CRL 1740) lysate. Lysates were prepared by harvesting confluent LNCaP cell cultures, resuspending cells in 4 volumes of 1 mM MgCl2 for 5 minutes, mixing with 2 μg of DNase (Boehringer Mannheim, Indianapolis, Ind.) and homogenizing using 40 strokes in a Dounce homogenizer (Wheaton, Millville, N.J.). LNCaP lysate (50 μl per well of a 1:50 dilution in 0.1×PBS [Dulbecco's pH 7.2, JRH, Denver, Pa.]) was air dried overnight at 37° C. onto wells of the ELISA plate. ELISA plates were blocked with 150 μl/well of 1% BSA (Pentex Fraction V, Miles, Kankakee, Ill.) in PBS for 60 minutes at room temperature.
The blank control consisted of blocking solution in the absence of primary antibody. 7E11-C5 monoclonal antibody pre-incubated with buffer without any phage (MAb) was the positive control. The expression vector m663 phage was also employed as a non-specific phage control.
Plates were washed 4 times with 0.05% Tween-20 in PBS. Bound monoclonal antibody 7E11-C5 was detected by: (1) incubating with 50 μl/well of anti-mouse IgG1 -HRP (Fisher Biotech, Orangeburg, N.Y.) diluted to 0.4 ng/ml in 1% BSA-PBS, for 60 minutes at room temperature; (2) washing plates 6 times with 0.05% Tween-20 in PBS; and (3) adding 100 μl/well ABTS substrate [200 μl ABTS, (Boehringer Mannheim), 10 ml citrate buffer (pH 4), 10 μl H2 O2 ]. Optical density of the reactions products was determined by endpoint analysis on a Multiscan plate reader (Molecular Devices, Menlo Park, Calif.). The competitive inhibition (%) was determined by comparing the reactivity of the positive control to the test samples.
(§2) The TSAR-based peptide (SEQ ID NO 31) concentration ranged from 1.75 to 1130 nM. […] Two additional control peptides (amide form) having the following amino acid sequences: RGD-21: NH2 -[…]-CONH2 (SEQ ID NO 32) and CYT-379: NH2 -[…]-CONH2 (SEQ ID NO 33) were also evaluated. Herein these control peptides are referred to as Control Peptide 1 and Control Peptide 2. […] The B139 monoclonal antibody, which is a murine IgG1 monoclonal antibody that reacts with all human epithelial cells, recognizes a different antigen in the LNCaP extract from that recognized by the 7E11-C5 antibody. The control B139 monoclonal antibody was used at a concentration of 9 ng/ml. The results obtained are illustrated in FIG. 13.

B139 monoclonal antibody [4] = assay: Competitive binding ELISA: inhibition of B139 binding to LNCaP extract; set-up: species or system murine; conditions: B139 9 ng/ml; FIG. 13
Method: as §2

parvalbumin = assay: CaM-12.1 phage binding to wells coated with parvalbumin; conditions: ELISA plate wells
Method: (§3) The binding properties of the CaM-12.1 TSAR were further examined in several ways. First, the ability of CaM-12.1 phage to bind other calcium-binding proteins was tested. […] Second, the ability of natural calmodulin binding peptides and proteins to compete for binding of the CaM-12.1 phage with CaM was tested. […] Third, the ability of a synthetic non-peptide CaM-antagonist, W7, (#681629; Calbiochem, San Diego, Calif.), was tested for its ability to compete for binding of CaM-12.1 to CaM. […] In summary: (1) CaM-12.1 binds CaM specifically, and not because it is a high-affinity Ca^2 +-binding protein; (2) CaM-12.1 binds CaM at a site partially overlapping or influenced, by the binding sites of CaM-dependentprotein kinase peptide, melittin and W7.

[5] = system: vitamin D calcium-binding protein; assay: CaM-12.1 phage binding to wells coated with vitamin D calcium-binding protein; conditions: ELISA plate wells
Method: as §3

calcineurin = assay: CaM-12.1 phage binding to calcineurin
Method: as §3

Substance	competition with binding of peptide SEQ ID NO 176 to CaM (calmodulin)	binding of 7E11-C5 to immobilized peptide [1]	binding of B139 to immobilized peptide (B139 monoclonal antibody [2])	competitive inhibition of 7E11-C5 binding to LNCaP extract by peptide [3]	competitive inhibition of B139 binding to LNCaP extract by peptide (B139 monoclonal antibody [4])	also measured
GAARAQTRLASWK [SEQ ID NO 186, C-terminal 13 residues]	none of the four peptides were able to compete	–	–	–	–	–
NH2 -SYGRGDVRGDFKCTCCA-CONH2 (H-SYGRGDVRGDFKCTCCA-NH2; cysteine pairing not given here) [Control Peptide 2]	–	did not bind to either of the tested antibodies	did not bind to either of the tested antibodies	did not effectively compete	neither SEQ ID NO 31 (amide form) nor either of Control Peptide 1 and Control Peptide 2 competitively inhibited the binding	–
PSYYRGDAGPSYYRGDAG-NH2 [Control Peptide 1]	–	did not bind to either of the tested antibodies	did not bind to either of the tested antibodies	did not effectively compete	neither SEQ ID NO 31 (amide form) nor either of Control Peptide 1 and Control Peptide 2 competitively inhibited the binding	–
STVPRAIEDSLRGGAARAQTRLASWK [SEQ ID NO. 184]	none of the four peptides were able to compete	–	–	–	–	–
VPRWIEDSLRGGAARAQTRLASA [CaM-12.1]	–	–	–	–	–	binding to parvalbumin (parvalbumin): failed to bind; binding to vitamin D calcium-binding protein [5]: failed to bind; binding to calcineurin (calcineurin): did not bind
